1 molecule from US10918653B2, “Bovine milk oligosaccharides” (The Regents of the University of California, priority 2010, dated 2021) can be followed below.

Test [1] concerns Salmonella typhimurium. The class given is cell-based, Salmonella enterica seovar Typhimurium. The following applies: sugar in MacConkey medium; BMO 2 g per 100 ml; strains 4, 6, 7.
The test system of test [2] is Salmonella typhimurium+lac operon. The test can be described thus: Growth on MacConkey agar plates (lactose or BMO). Type of test: cell-based. The note with it: sugar in MacConkey medium; BMO 2 g per 100 ml; strain 5. The procedure: (§1) FIGS. 3A-3B illustrate growth of select pathogens on BMO. […] The Lac operon permease can transport BMO trimers and tetramers. […] BMOs were suspended at 1 gr/10 mL of sterile water, 10 N NaOH was added until the pH was 7. The BMO solution was used in a MacConkey medium to generate agar plates.

The subject of test [3] is Yersinia enterocolitica. Briefly: Growth on MacConkey agar plates (lactose or BMO). The class given is cell-based. The following applies: sugar in MacConkey medium; BMO 2 g per 100 ml; strain 9. As to the method: as §1
In test [4] the test system is E. coli K12 (DH5alpha, lac minus). Briefly: Growth on MacConkey agar plates (lactose or BMO). The note with it: sugar in MacConkey medium; BMO 2 g per 100 ml; strain 2. The class given is cell-based. The procedure: as §1
Test [5] has as its system E. coli K12. The test can be described thus: Growth on MacConkey agar plates (lactose or BMO). Type of test: cell-based. The note with it: sugar in MacConkey medium; BMO 2 g per 100 ml; strain 1. As to the method: as §1
The test system of test [6] is Vibrio cholerae. The class given is cell-based. The note with it: sugar in MacConkey medium; BMO 2 g per 100 ml; strains 10, 11.
Test [7] has as its system Listeria monocytognes. The test can be described thus: Growth on MacConkey agar plates (lactose or BMO). The class given is cell-based, Listeria monocytogenes. The note with it: sugar in MacConkey medium; BMO 2 g per 100 ml; strain 8. The procedure:
as §1

Test [8] concerns E. coli O157:H7. Type of test: cell-based. The following applies: sugar in MacConkey medium; BMO 2 g per 100 ml; strain 3.

In the case of `OC[C@H]1O[C@@H](O[C@H]2[C@H](O)[C@@H](O)C(O)O[C@@H]2CO)[C@H](O)[C@@H](O)[C@H]1O` (some centres unmarked) [Lactose], the “growth on MacConkey agar plate” value in test [1], in test [3], in test [4], in test [6] and in test [7] was “negative” each time. Besides, the “growth on MacConkey agar plate (red strikes)” value in test [2], in test [5] and in test [8] was “growth observed” each time.
